Measurements taken from patent US20220323406A1, “METHODS AND COMPOSITIONS FOR DIFFERENTIATING STEM CELLS” (Massachusetts Institute of Technology, priority 2019, published 2022).

Tests used:
[1] = system: ENR+CD organoids (ISC to Paneth cell differentiation); assay: Primary screen: basal (non-stimulated) lysozyme secretion LYZ.NS, 2.5-D 384-well ENR+CD organoid differentiation; type: cell-based, mouse; conditions: primary screen; for Z.LYZ.NS: standard z score
From the text: (§1) High-throughput screening.

[2] = system: ENR+CD organoids (ISC to Paneth cell differentiation); assay: Primary screen: CCh-stimulated lysozyme secretion LYZ.S, 2.5-D 384-well ENR+CD organoid differentiation; type: cell-based, mouse; conditions: primary screen
From the text: as §1

ENR+CD organoids = assay: Primary screen: ATP (CellTiter-Glo 3D, CTG) cell number/viability, 2.5-D 384-well ENR+CD organoids; conditions: primary screen; for Z.CTG: standard z score;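 on all read-outs here: compounds given at plating and again on day 3 over a 6-day differentiation from ENR+CV stem-cell-enriched precursors, ATP measured on day 6, plate median as control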
[3] = dose 0.08 uM, FC vs plate median
[4] = dose 0.40 uM, FC vs plate median
[5] = dose 2.00 uM, FC vs plate median
[6] = dose 10.00 uM, FC vs plate median
[7] = dose 10.00 uM, FC relative to plate median
[8] = dose 0.08 uM, FC relative to plate median
[9] = dose 0.40 uM, FC relative to plate median
[10] = dose 2.00 uM, FC relative to plate median

| SMILES | Z.LYZ.NS ([1]; dose 0.08 uM) | Z.LYZ.NS ([1]; dose 0.40 uM) | Z.LYZ.NS ([1]; dose 2.00 uM) | Z.LYZ.NS ([1]; dose 10.00 uM) | Dose.FC.LYZ.NS [1, 3] [log2 fold change] | Dose.FC.LYZ.NS [1, 4] [log2 fold change] | Dose.FC.LYZ.NS [1, 5] [log2 fold change] | Dose.FC.LYZ.NS [1, 6] [log2 fold change] | Dose.FC.LYZ.S [2, 3] [log2 fold change] | Dose.FC.LYZ.S [2, 4] [log2 fold change] | Dose.FC.LYZ.S [2, 5] [log2 fold change] | Dose.FC.LYZ.S [2, 6] [log2 fold change] | Z.CTG (ENR+CD organoids; dose 0.08 uM) | Z.CTG (ENR+CD organoids; dose 0.40 uM) | Z.CTG (ENR+CD organoids; dose 2.00 uM) | Z.CTG (ENR+CD organoids; dose 10.00 uM) | Dose.FC.CTG (ENR+CD organoids; [3]) [log2 fold change] | Dose.FC.CTG (ENR+CD organoids; [4]) [log2 fold change] | Dose.FC.CTG (ENR+CD organoids; [5]) [log2 fold change] | Dose.FC.CTG (ENR+CD organoids; [6]) [log2 fold change] | also measured |
| --- | --- | --- | --- | --- | --- | --- | --- | --- | --- | --- | --- | --- | --- | --- | --- | --- | --- | --- | --- | --- | --- |
| CS(=O)(=O)c1cccc(CNc2nc(Nc3ccc4c(c3)CCC(=O)N4)ncc2C(F)(F)F)c1 [PF-573228] | 0.089 | −0.401 | −0.502 | −2.180 | 0.010 | −0.046 | −0.058 | −0.250 | 0.114 | 0.002 | −0.174 | −0.305 | 0.183 | −0.129 | −1.037 | −1.188 | 0.077 | −0.054 | −0.434 | −0.497 | – |
| OCCn1cc(-c2cnc3nnn(Cc4ccc5ncccc5c4)c3n2)cn1 [PF-04217903] | 0.742 | 1.404 | 1.060 | 0.617 | 0.085 | 0.161 | 0.122 | 0.071 | 0.110 | 0.265 | 0.049 | 0.127 | 0.326 | 0.616 | −0.122 | 0.276 | 0.136 | 0.258 | −0.051 | 0.116 | – |
| Cc1cnc(-c2cc(N3CCN(C(=O)CCS(C)(=O)=O)CC3)ncc2Cl)c(C)c1 [PF-5274857] | 0.683 | −0.256 | 0.094 | 0.642 | 0.078 | −0.029 | 0.011 | 0.074 | 0.187 | −0.034 | 0.042 | 0.076 | −0.242 | −0.096 | 0.131 | −0.183 | −0.101 | −0.040 | 0.055 | −0.076 | – |
| COc1ccccc1S(=O)(=O)Nc1ccc2c(c1)CN(C)C(=O)N2 [PFI-1 (PF-6405761)] | 0.538 | 0.691 | −0.852 | −0.573 | 0.062 | 0.079 | −0.098 | −0.066 | 0.061 | 0.104 | −0.117 | −0.194 | 0.340 | 0.931 | 0.770 | −0.929 | 0.142 | 0.390 | 0.322 | −0.389 | – |
| CC(C)CC(=O)Nc1[nH]nc2c1CN(C(=O)C1CCN(C)CC1)C2(C)C [PHA-793887] | 0.275 | 0.085 | −1.187 | −2.324 | 0.032 | 0.010 | −0.136 | −0.267 | 0.046 | 0.100 | −0.081 | −0.292 | – | – | – | – | 0.113 | 0.132 | −0.144 | −0.856 | – |
| COc1cc(OC)c(NC(=O)Nc2cc(C)on2)cc1Cl [PNU-120596] | 0.944 | −0.098 | 0.594 | −0.525 | 0.108 | −0.011 | 0.068 | −0.060 | 0.058 | 0.081 | 0.065 | −0.049 | −0.188 | 0.204 | 0.271 | 0.330 | −0.079 | 0.085 | 0.114 | 0.138 | – |
| CC(C)(C)n1nc(-c2ccc(Cl)cc2)c2c(N)ncnc21 [PP2] | 0.285 | 0.104 | 2.354 | −0.235 | 0.033 | 0.012 | 0.270 | – | 0.058 | 0.145 | 0.113 | – | −1.655 | 0.312 | −0.913 | −0.587 | −0.693 | 0.130 | −0.382 | – | Dose.FC.LYZ.NS [1, 7]: −0.027 log2 fold change; Dose.FC.LYZ.S [2, 7]: 0.027 log2 fold change; Dose.FC.CTG (ENR+CD organoids; [7]): −0.246 log2 fold change |
| N#CSc1cc(SC#N)c(N)nc1N [PR-619] | 0.872 | 0.448 | 0.495 | −1.687 | – | – | – | – | – | – | – | – | 0.130 | 0.266 | 0.053 | −0.764 | – | – | – | – | Dose.FC.LYZ.NS [1, 8]: 0.100 log2 fold change; Dose.FC.LYZ.NS [1, 9]: 0.051 log2 fold change; Dose.FC.LYZ.NS [1, 10]: 0.057 log2 fold change; Dose.FC.LYZ.NS [1, 7]: −0.194 log2 fold change; Dose.FC.LYZ.S [2, 8]: 0.122 log2 fold change; Dose.FC.LYZ.S [2, 9]: 0.047 log2 fold change; Dose.FC.LYZ.S [2, 10]: 0.081 log2 fold change; Dose.FC.LYZ.S [2, 7]: −0.193 log2 fold change; Dose.FC.CTG (ENR+CD organoids; [8]): 0.054 log2 fold change; Dose.FC.CTG (ENR+CD organoids; [9]): 0.111 log2 fold change; Dose.FC.CTG (ENR+CD organoids; [10]): 0.022 log2 fold change; Dose.FC.CTG (ENR+CD organoids; [7]): −0.320 log2 fold change |
| Cl.NC(=O)c1cnc(N[C@@H]2CCCC[C@@H]2N)nc1Nc1cccc(-n2nccn2)c1 [PRT062607 (P505-15, BIIB057) HCl] | 0.037 | 0.194 | −0.280 | −1.837 | – | – | – | – | – | – | – | – | −0.219 | 0.191 | −0.179 | −0.788 | – | – | – | – | Dose.FC.LYZ.NS [1, 8]: 0.004 log2 fold change; Dose.FC.LYZ.NS [1, 9]: 0.022 log2 fold change; Dose.FC.LYZ.NS [1, 10]: −0.032 log2 fold change; Dose.FC.LYZ.NS [1, 7]: −0.211 log2 fold change; Dose.FC.LYZ.S [2, 8]: −0.033 log2 fold change; Dose.FC.LYZ.S [2, 9]: 0.122 log2 fold change; Dose.FC.LYZ.S [2, 10]: −0.123 log2 fold change; Dose.FC.LYZ.S [2, 7]: −0.298 log2 fold change; Dose.FC.CTG (ENR+CD organoids; [8]): −0.092 log2 fold change; Dose.FC.CTG (ENR+CD organoids; [9]): 0.080 log2 fold change; Dose.FC.CTG (ENR+CD organoids; [10]): −0.075 log2 fold change; Dose.FC.CTG (ENR+CD organoids; [7]): −0.330 log2 fold change |
| COc1cc(Br)c(Nc2nc(-c3c(C)nc4ncccn34)cs2)c(Br)c1 [PTC-209] | 0.294 | −0.509 | −1.753 | −1.975 | – | – | – | – | – | – | – | – | −0.259 | −0.495 | −3.397 | −3.708 | – | – | – | – | Dose.FC.LYZ.NS [1, 8]: 0.034 log2 fold change; Dose.FC.LYZ.NS [1, 9]: −0.058 log2 fold change; Dose.FC.LYZ.NS [1, 10]: −0.201 log2 fold change; Dose.FC.LYZ.NS [1, 7]: −0.227 log2 fold change; Dose.FC.LYZ.S [2, 8]: 0.007 log2 fold change; Dose.FC.LYZ.S [2, 9]: 0.045 log2 fold change; Dose.FC.LYZ.S [2, 10]: −0.289 log2 fold change; Dose.FC.LYZ.S [2, 7]: −0.300 log2 fold change; Dose.FC.CTG (ENR+CD organoids; [8]): −0.108 log2 fold change; Dose.FC.CTG (ENR+CD organoids; [9]): −0.207 log2 fold change; Dose.FC.CTG (ENR+CD organoids; [10]): −1.422 log2 fold change; Dose.FC.CTG (ENR+CD organoids; [7]): −1.553 log2 fold change |
